Results: ChEMBL document CHEMBL1201862, “PubChem BioAssay data set” (2004)
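How tested: cells in 96-well plates exposed to compound for 48 hours at five concentrations. At the GI50, growth is halved.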 Active and inactive are the calls of the source. No stated cut-off is given here; in the data, active = GI50 up to about 1.1 µM and inactive = higher.

Legend:
Assay in all cases: NCI-60 cell line screen, 48 h
KM12 = system: KM12
NCI-H460 = system: NCI-H460
K562 = system: K562
NCI-H23 = system: NCI-H23
U-251 = system: U-251
UO-31 = system: UO-31
SK-OV-3 = system: SK-OV-3
RPMI-8226 = system: RPMI-8226
CAKI-1 = system: CAKI-1
MCF7 = system: MCF7
SK-MEL-5 = system: SK-MEL-5
PC-3 = system: PC-3
OVCAR-5 = system: OVCAR-5
SF-539 = system: SF-539
MDA-MB-231 = system: MDA-MB-231
EKVX = system: EKVX
IGROV-1 = system: IGROV-1
HOP-62 = system: HOP-62
MDA-N = system: MDA-N
SNB-19 = system: SNB-19
ACHN = system: ACHN
SW-620 = system: SW-620
NCI-H522 = system: NCI-H522
DU-145 = system: DU-145
SF-268 = system: SF-268
SK-MEL-2 = system: SK-MEL-2
HCC 2998 = system: HCC 2998
MOLT-4 = system: MOLT-4
OVCAR-3 = system: OVCAR-3
SNB-75 = system: SNB-75
SK-MEL-28 = system: SK-MEL-28
BT-549 = system: BT-549
HL-60 = system: HL-60
A498 = system: A498
UACC-257 = system: UACC-257
HOP-92 = system: HOP-92
RXF 393 = system: RXF 393
SF-295 = system: SF-295
Malme-3M = system: Malme-3M
786-0 = system: 786-0
MDA-MB-435 = system: MDA-MB-435
NCI-H226 = system: NCI-H226
A549 = system: A549
HT-29 = system: HT-29
M14 = system: M14
TK-10 = system: TK-10
HCT-116 = system: HCT-116
OVCAR-8 = system: OVCAR-8
OVCAR-4 = system: OVCAR-4
NCI/ADR-RES = system: NCI/ADR-RES
COLO 205 = system: COLO 205
UACC-62 = system: UACC-62
CCRF-CEM = system: CCRF-CEM
Hs-578T = system: Hs-578T
T47D = system: T47D
SR = system: SR
SN12C = system: SN12C
LOX IMVI = system: LOX IMVI
HCT-15 = system: HCT-15

## C(=N\Nc1ccc(-c2nc3ccccc3[nH]2)cc1)/c1c(-c2ccc(Cc3ccccc3)cc2)[nH]c2ccccc12
KM12
  GI50: 4.37 µM (inactive)
NCI-H460
  GI50: 10.8 µM (inactive)
K562
  GI50: 4.46 µM (inactive)
NCI-H23
  GI50: 8.79 µM (inactive)
U-251
  GI50: 6.01 µM (inactive)
UO-31
  GI50: 10.8 µM (inactive)
SK-OV-3
  GI50: 21.6 µM (inactive)
RPMI-8226
  GI50: 3.08 µM (inactive)
CAKI-1
  GI50: 14.3 µM (inactive)
MCF7
  GI50: 5.06 µM (inactive)
SK-MEL-5
  GI50: 6.41 µM (inactive)
PC-3
  GI50: 4.86 µM (inactive)
OVCAR-5
  GI50: 26.1 µM (inactive)
SF-539
  GI50: 5.74 µM (inactive)
MDA-MB-231
  GI50: 11.5 µM (inactive)
EKVX
  GI50: 20.4 µM (inactive)
IGROV-1
  GI50: 4.41 µM (inactive)
HOP-62
  GI50: 19.6 µM (inactive)
MDA-N
  GI50: 2.38 µM (inactive)
SNB-19
  GI50: 14.2 µM (inactive)
ACHN
  GI50: 11 µM (inactive)
SW-620
  GI50: 9.98 µM (inactive)
NCI-H522
  GI50: 9.08 µM (inactive)
DU-145
  GI50: 16.8 µM (inactive)
SF-268
  GI50: 0.925 µM (active)
SK-MEL-2
  GI50: 3.56 µM (inactive)
HCC 2998
  GI50: 3.83 µM (inactive)
MOLT-4
  GI50: 2.56 µM (inactive)
OVCAR-3
  GI50: 9.44 µM (inactive)
SNB-75
  GI50: 4.47 µM (inactive)
SK-MEL-28
  GI50: 12.9 µM (inactive)
BT-549
  GI50: 4.1 µM (inactive)
HL-60
  GI50: 7.06 µM (inactive)
A498
  GI50: 11.4 µM (inactive)
UACC-257
  GI50: 13.5 µM (inactive)
HOP-92
  GI50: 4.09 µM (inactive)
RXF 393
  GI50: 2.29 µM (inactive)
SF-295
  GI50: 2.56 µM (inactive)
Malme-3M
  GI50: 2.49 µM (inactive)
786-0
  GI50: 3.3 µM (inactive)
MDA-MB-435
  GI50: 3.23 µM (inactive)
NCI-H226
  GI50: > 94.4 µM (inactive)
A549
  GI50: 6.85 µM (inactive)
HT-29
  GI50: 3.67 µM (inactive)
M14
  GI50: 4.48 µM (inactive)
TK-10
  GI50: 21.5 µM (inactive)
HCT-116
  GI50: 5.01 µM (inactive)
OVCAR-8
  GI50: 7.91 µM (inactive)
OVCAR-4
  GI50: 14.1 µM (inactive)
NCI/ADR-RES
  GI50: 5.31 µM (inactive)
COLO 205
  GI50: 3.94 µM (inactive)
UACC-62
  GI50: 7.69 µM (inactive)
CCRF-CEM
  GI50: 5.06 µM (inactive)
Hs-578T
  GI50: 2.57 µM (inactive)
T47D
  GI50: 7.18 µM (inactive)
SR
  GI50: 2.15 µM (inactive)
SN12C
  GI50: 18.6 µM (inactive)
LOX IMVI
  GI50: 4.05 µM (inactive)
HCT-15
  GI50: 4.07 µM

## O=C1/C(=C/c2ccc(O)cc2)CCc2ccccc21
KM12
  GI50: 17.2 µM (inactive)
NCI-H460
  GI50: 29.3 µM (inactive)
K562
  GI50: 13.6 µM (inactive)
NCI-H23
  GI50: 23.4 µM (inactive)
U-251
  GI50: 27.6 µM (inactive)
UO-31
  GI50: 19.6 µM (inactive)
SK-OV-3
  GI50: > 55.6 µM (inactive)
RPMI-8226
  GI50: 6.5 µM (inactive)
CAKI-1
  GI50: 31.3 µM (inactive)
MCF7
  GI50: 6.38 µM (inactive)
SK-MEL-5
  GI50: 16.9 µM (inactive)
PC-3
  GI50: 16.8 µM (inactive)
OVCAR-5
  GI50: 35.7 µM (inactive)
SF-539
  GI50: 18 µM (inactive)
MDA-MB-231
  GI50: 20.5 µM (inactive)
EKVX
  GI50: 23 µM (inactive)
IGROV-1
  GI50: 26.9 µM (inactive)
HOP-62
  GI50: 22.9 µM (inactive)
MDA-N
  GI50: 22.1 µM (inactive)
SNB-19
  GI50: 22.4 µM (inactive)
ACHN
  GI50: 21.1 µM (inactive)
SW-620
  GI50: 19.4 µM (inactive)
NCI-H522
  GI50: 3.05 µM (inactive)
DU-145
  GI50: 24.8 µM (inactive)
SF-268
  GI50: 16.1 µM (inactive)
SK-MEL-2
  GI50: 16 µM (inactive)
HCC 2998
  GI50: 22 µM (inactive)
MOLT-4
  GI50: 2.82 µM (inactive)
OVCAR-3
  GI50: 23.3 µM (inactive)
SNB-75
  GI50: 26.9 µM (inactive)
SK-MEL-28
  GI50: 19.2 µM (inactive)
BT-549
  GI50: 20 µM (inactive)
HL-60
  GI50: 6.14 µM (inactive)
A498
  GI50: 24.7 µM (inactive)
UACC-257
  GI50: 17.3 µM (inactive)
HOP-92
  GI50: 36.2 µM (inactive)
RXF 393
  GI50: 17.1 µM (inactive)
SF-295
  GI50: 28 µM (inactive)
Malme-3M
  GI50: 20.7 µM (inactive)
786-0
  GI50: 16.7 µM (inactive)
MDA-MB-435
  GI50: 21.5 µM (inactive)
NCI-H226
  GI50: 24.5 µM (inactive)
A549
  GI50: 23.6 µM (inactive)
HT-29
  GI50: 21.5 µM (inactive)
M14
  GI50: 20.2 µM (inactive)
TK-10
  GI50: 51.5 µM (inactive)
HCT-116
  GI50: 16.1 µM (inactive)
OVCAR-8
  GI50: 27.2 µM (inactive)
OVCAR-4
  GI50: 18.5 µM (inactive)
NCI/ADR-RES
  GI50: 12.7 µM (inactive)
COLO 205
  GI50: 22 µM (inactive)
UACC-62
  GI50: 21.5 µM (inactive)
CCRF-CEM
  GI50: 1.7 µM (inactive)
Hs-578T
  GI50: 23 µM (inactive)
T47D
  GI50: 50.6 µM (inactive)
SR
  GI50: 5.45 µM (inactive)
SN12C
  GI50: 18.3 µM (inactive)
LOX IMVI
  GI50: 20 µM (inactive)
HCT-15
  GI50: 18.8 µM
